Earlier results on one substance are cited in PMC12296474, “Nano-Amounts of Glucagon Premixed With Fast-Acting Insulin Lispro: Effect on Insulin Absorption in Pigs” (Current Therapeutic Research, Clinical and Experimental, 2025).

The test system of this data set is subcutaneous blood flow. The conditions noted are these: healthy subjects. On the procedure: We focused our proof-of-concept experiments on adding nanogram doses of glucagon to Lyumjev^Ⓡ, the most fast-acting insulin formulation available on the market. As previously discussed, we believe glucagon may increase insulin absorption through significant but very localized subcutaneous vasodilation. Therefore, it is noteworthy that when glucagon was added to Lyumjev^Ⓡ, an insulin formulation that already contains 10 ng of the vasodilator treprostinil per unit of insulin, we observed even faster insulin absorption. This effect was not observed in experiments with glucagon added to Humalog^Ⓡ. ...

With glucagon, the “Enhancement of subcutaneous blood flow” value is 4% to 500.
